# Test results taken from patent US20250375428A1, “CBL-B INHIBITORS AND ANTI-PD1/ANTI-PD-L1 FOR USE IN THE TREATMENT OF CANCER” (HOTSPOT THERAPEUTICS, INC., priority 2022, published 2025).
# Columns and labels:
# [1] = system: CT26 tumor cells; assay: Subcutaneous syngeneic colorectal cancer model CT26 in female BALB/c mice; format: in vivo, mouse; details: Compound 29 30 mg/kg p.o. (QD or BID) in combination with anti-PD1 10 mg/kg i.p. BIW; FIG. 3
# Protocol: The objective of this pharmacology study was to evaluate the anti-tumor growth efficacy of Compound 29 with in combination with anti-PD1 antibody (BP0146) or Isotype IgG2a (BP0089) in the treatment of the subcutaneous CT26 murine colorectal cancer model in female BALB/c mice.
# Test particles were delivered via PO when the average tumor volume reached approximately 80 mm^3. Test articles was assessed at dose levels as described in Table 6. Tumor volumes and body weight were measured after the initiation of treatment.
# The CT26 tumor cells were maintained in vitro with RPMI-1640 medium supplemented with 10% fetal bovine serum at 37° C. in an atmosphere of 5% CO^2 in air. The cells in exponential growth phase was harvested and quantitated by cell counter before tumor inoculation.
# Each mouse was inoculated subcutaneously in the right lower flank region with CT26 tumor cells (5×10^5) in 0.1 ml of PBS for tumor development. […]
# Tumor volumes were measured thrice per week after randomization in two dimensions using a caliper, and the volume was expressed in mm^3 using the formula: V=(L×W×W)/2, where V is tumor volume, L is tumor length (the longest tumor dimension) and W is tumor width (the longest tumor dimension perpendicular to L). […]
# Tumor growth inhibition (TGI): TGI % is an indication of antitumor activity, and expressed as: TGI (%)=100×(1−T/C). […]
# [2] = system: H22 tumor cells; assay: Subcutaneous H22 murine liver cancer model in female BALB/c mice; format: in vivo; parameters: Dunnett's multiple comparisons test Mean Diff.: unit: mm3; details: for TGI (%): day 12; for Dunnett's multiple comparisons test Mean Diff.: tumor volume
# Protocol: The objective of this pharmacology study was to evaluate the anti-tumor growth efficacy of Compound 85 with in combination with anti-PD1 antibody (BP0146) in the treatment of the subcutaneous H22 murine liver cancer model in female BALB/c mice. Compound 85 test particles were delivered via PO when the average tumor volume reached approximately 80 mm^3. Compound 85 was assessed at 4 different dose levels (2 mpk, 6 mpk, 10 mpk, and 20 mpk for QD) in combination with anti-PD1 antibody (10 mpk, BIW). Tumor volumes and body weight were measured three times per week after the initiation of treatment.
# The H22 tumor cells were maintained in vitro with RPMI-1640 medium supplemented with 10% fetal bovine serum at 37° C. in an atmosphere of 5% CO2. Cells in the exponential growth phase were harvested and quantified by cell counter before tumor inoculation.
# Each mouse was inoculated subcutaneously in the right front flank region with H22 tumor cells (1×10e6) in 0.1 ml of PBS for tumor development.
# After tumor inoculation, the animals were checked daily for morbidity and mortality. During routine monitoring, the animals were checked for any effects of tumor growth and treatments on behavior such as mobility, food and water consumption, body weight gain/loss (Body weights were measured thrice per week after randomization), eye/hair matting and any other abnormalities. Mortality and observed clinical signs were recorded for individual animals in detail.
# Tumor volumes were measured three times per week after randomization in two dimensions using a caliper, and the volume was expressed in mm3 using the formula: V=(L×W×W)/2, where V is tumor volume, L is tumor length (the longest tumor dimension) and W is tumor width (the longest tumor dimension perpendicular to L). Dosing, as well as tumor and body weight measurements, were conducted in a Laminar Flow Cabinet.
# Tumor growth inhibition (TGI): TGI % is an indication of antitumor activity, expressed as: TGI (%)=100×(1−T/C). T and C are the mean tumor volume (or weight) of the treated and control groups on a given day.
# The treatment was performed for 21 days and the study was terminated on day 20 post dosing initiation.
Compound,tumor growth inhibition of CT26 tumors [1],TGI (%) ([2]; Compound 85 2 mpk QD p.o. + anti-PD1 10 mpk BIW vs. Vehicle + isotype),TGI (%) ([2]; Compound 85 6 mpk QD p.o. + anti-PD1 10 mpk BIW vs. Vehicle + isotype),tumor inhibition compared with anti-PD1 alone ([2]; Compound 85 10 mpk QD and 20 mpk QD + anti-PD1 combination),TGI (%) ([2]; Compound 85 10 mpk QD p.o. + anti-PD1 10 mpk BIW vs. Vehicle + isotype),"complete regression ([2]; Compound 85 20 mpk QD and anti-PD1 combination group, day 20)",TGI (%) ([2]; Compound 85 20 mpk QD p.o. + anti-PD1 10 mpk BIW vs. Vehicle + isotype),benefit in combination with anti-PD1 ([2]; Compound 85 + anti-PD1),"anti-tumor efficacy compared to single agent treatment ([2]; Compound 85 at 2, 6, 10 and 20 mpk in combination with Anti-PD-1)",tolerability ([2]; Compound 85 up to 20 mpk QD in combination with anti-PD1),Dunnett's multiple comparisons test Mean Diff. ([2]; Vehicle + isotype vs. Compound 85 2 mpk QD + anti-PD1),Dunnett's multiple comparisons test Mean Diff. ([2]; Vehicle + isotype vs. Compound 85 6 mpk QD + anti-PD1),Dunnett's multiple comparisons test Mean Diff. ([2]; Vehicle + isotype vs. Compound 85 10 mpk QD + anti-PD1),Dunnett's multiple comparisons test Mean Diff. ([2]; Vehicle + isotype vs. Compound 85 20 mpk QD + anti-PD1),"loss of average body weight ([2]; day 2 of treatment, Compound 85 20 mpk QD and anti-PD1 combination)"
C[C@H]1CCCN(Cc2cc(C(F)(F)F)c3cn(-c4cccc(C5(Cc6nncn6C)COC5)c4)c(=O)n3c2)C1 [Compound 29],further enhanced,–,–,–,–,–,–,–,–,–,–,–,–,–,–
C[C@H]1CCCN(Cc2cc(C(F)(F)F)c3cn(-c4cccc([C@H](c5nncn5C)C5CCC5)c4)c(=O)n3c2)C1 [Compound 85],–,74.8,82.87,statistically significant increase,85.2,One complete regression,87.73,additive or synergistic benefit,increased anti-tumor efficacy,No tolerability issue,2158,2391,2458,2531,less than 5%
